Several values for one entry are separate records, joined by “and”; a condition that tells them apart may be missing. Equal values may be shown once. Inconclusive results and toxic doses are left out. Rule for the calls: active = survival T/C of 150% or more; inactive = T/C below 125% in these data.
Tested on: BDF1 mice, P388 leukemia ip, median survival T/C
Experiment: NCI In Vivo Anticancer Drug Screen. Data for tumor model P388 Leukemia (intraperitoneal) in B6D2F1 (BDF1) mice
Conditions: endpoint: median survival time, higher = longer survival
Outline: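 In tumour-bearing mice, survival after compound treatment is set against the vehicle group and given as a quotient.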

[1] = dose: 3.75 mg/kg/injection, schedule: Q01DX009 (ip), vehicle: saline
[2] = dose: 5.0 mg/kg/injection, schedule: Q04DX003 (ip), vehicle: saline
[3] = dose: 7.5 mg/kg/injection, schedule: Q04DX003 (ip), vehicle: saline
[4] = dose: 100.0 mg/kg/injection, schedule: Q04DX003 (ip), vehicle: saline
[5] = dose: 100.0 mg/kg/injection, schedule: Q04DX003 (ip), vehicle: saline with Tween-80
[6] = dose: 200.0 mg/kg/injection, schedule: Q04DX003 (ip), vehicle: saline with Tween-80
[7] = dose: 6.25 mg/kg/injection, schedule: Q01DX009 (ip), vehicle: saline with Tween-80
[8] = dose: 12.5 mg/kg/injection, schedule: Q01DX009 (ip), vehicle: saline with Tween-80
[9] = dose: 25.0 mg/kg/injection, schedule: Q01DX009 (ip), vehicle: saline with Tween-80
[10] = dose: 25.0 mg/kg/injection, schedule: Q04DX003 (ip), vehicle: saline with Tween-80
[11] = dose: 50.0 mg/kg/injection, schedule: Q04DX003 (ip), vehicle: saline with Tween-80
[12] = dose: 200.0 mg/kg/injection, schedule: Q01DX009 (ip), vehicle: saline with Tween-80
[13] = dose: 100.0 mg/kg/injection, schedule: Q01DX009 (ip), vehicle: saline with Tween-80

Measured: T/C

COc1cccc2c1C(=O)c1c(O)c3c(c(O)c1C2=O)C[C@@](O)(/C(C)=N\NC(=O)CO)C[C@@H]3OC1CC(N)C(O)C(C)O1 (stereo not given in full)
inactive: dose: 7.5 mg/kg/injection, schedule: Q01DX009 (ip), vehicle: saline 115 % of control | dose: 29.0 micrograms/kg/injection, schedule: Q01DX009 (ip), vehicle: saline 110 % of control | dose: 44.0 micrograms/kg/injection, schedule: Q01DX009 (ip), vehicle: saline 116 % of control
active: dose: 0.27 mg/kg/injection, schedule: Q01DX009 (ip), vehicle: saline 172 % of control | dose: 0.4 mg/kg/injection, schedule: Q01DX009 (ip), vehicle: saline 183 % of control | dose: 0.6 mg/kg/injection, schedule: Q01DX009 (ip), vehicle: saline 190 % of control | dose: 0.9 mg/kg/injection, schedule: Q01DX009 (ip), vehicle: saline 186 % of control | dose: 1.87 mg/kg/injection, schedule: Q01DX009 (ip), vehicle: saline 248 % of control | dose: 2.2 mg/kg/injection, schedule: Q04DX003 (ip), vehicle: saline 159 % of control and 172 % of control | dose: 3.3 mg/kg/injection, schedule: Q04DX003 (ip), vehicle: saline 154 % of control and 213 % of control | [1] 182 % of control | [2] 163 % of control and 209 % of control | [3] 150 % of control and 200 % of control

C=C1C(=O)OC2CC(C)CCC/C(CO)=C/C(OC(=O)/C(=C/CO)CO)C12 (stereo not given)
inactive: dose: 3.5 mg/kg/injection, schedule: Q01DX009 (ip), vehicle: saline 104 % of control | dose: 7.0 mg/kg/injection, schedule: Q01DX009 (ip), vehicle: saline 108 % of control

CCNCc1ccc(OC)cc1
inactive: dose: 25.0 mg/kg/injection, schedule: Q04DX003 (ip), vehicle: saline 100 % of control | dose: 50.0 mg/kg/injection, schedule: Q04DX003 (ip), vehicle: saline 100 % of control | [4] 100 % of control

CC(=O)Nc1ccc(S(=O)(=O)Oc2ccc([N+](=O)[O-])cc2)cc1
inactive: dose: 1.56 mg/kg/injection, schedule: Q01DX009 (ip), vehicle: saline 96 % of control | dose: 3.12 mg/kg/injection, schedule: Q01DX009 (ip), vehicle: saline 112 % of control | dose: 6.25 mg/kg/injection, schedule: Q01DX009 (ip), vehicle: saline 107 % of control | dose: 12.5 mg/kg/injection, schedule: Q01DX009 (ip), vehicle: saline 93 % of control | dose: 25.0 mg/kg/injection, schedule: Q01DX009 (ip), vehicle: saline 92 % of control and 103 % of control

COc1ccc2c3c(ccc2c1)C(=O)C(C)(C#N)CC3 (stereo not given)
inactive: dose: 50.0 mg/kg/injection, schedule: Q01DX009 (ip), vehicle: Klucel (hydroxypropylcellulose) (HPC) 104 % of control | dose: 100.0 mg/kg/injection, schedule: Q01DX009 (ip), vehicle: Klucel (hydroxypropylcellulose) (HPC) 95 % of control | dose: 100.0 mg/kg/injection, schedule: Q04DX003 (ip), vehicle: other 95 % of control | dose: 200.0 mg/kg/injection, schedule: Q01DX009 (ip), vehicle: Klucel (hydroxypropylcellulose) (HPC) 100 % of control | dose: 200.0 mg/kg/injection, schedule: Q04DX003 (ip), vehicle: other 100 % of control | dose: 400.0 mg/kg/injection, schedule: Q04DX003 (ip), vehicle: other 95 % of control

O=S(/C=C/c1ccccc1)c1ccccc1 (stereo not given)
inactive: dose: 50.0 mg/kg/injection, schedule: Q01DX009 (ip), vehicle: other 104 % of control | dose: 100.0 mg/kg/injection, schedule: Q01DX009 (ip), vehicle: other 100 % of control | dose: 200.0 mg/kg/injection, schedule: Q01DX009 (ip), vehicle: other 104 % of control

O=C1CSc2cc[nH]c21
inactive: dose: 50.0 mg/kg/injection, schedule: Q04DX003 (ip), vehicle: Klucel (hydroxypropylcellulose) (HPC) 90 % of control | dose: 100.0 mg/kg/injection, schedule: Q04DX003 (ip), vehicle: Klucel (hydroxypropylcellulose) (HPC) 90 % of control | dose: 200.0 mg/kg/injection, schedule: Q04DX003 (ip), vehicle: Klucel (hydroxypropylcellulose) (HPC) 104 % of control

CCOC(=O)c1ccnc2ccc(O)cc12
inactive: [5] 91 % of control | [6] 108 % of control | dose: 400.0 mg/kg/injection, schedule: Q04DX003 (ip), vehicle: saline with Tween-80 95 % of control

Nc1ccc(OCc2ccccc2)cc1
inactive: [7] 90 % of control | [8] 100 % of control | [9] 100 % of control | [10] 95 % of control | [11] 100 % of control | [5] 100 % of control

O=C(O)c1c(Cl)c(Cl)c(Cl)c(Cl)c1C(=O)O.O=C(O)c1c(Cl)c(Cl)c(Cl)c(Cl)c1C(=O)O.[Pt]
inactive: dose: 25.0 mg/kg/injection, schedule: Q04DX003 (ip), vehicle: saline sonified 115 % of control | dose: 50.0 mg/kg/injection, schedule: Q04DX003 (ip), vehicle: saline sonified 120 % of control

CCCCCN(C)/N=N/c1nc[nH]c1C(N)=O
inactive: [12] 100 % of control | dose: 264.0 mg/kg/injection, schedule: Q04DX003 (ip), vehicle: Klucel (hydroxypropylcellulose) (HPC) 90 % of control | dose: 400.0 mg/kg/injection, schedule: Q04DX003 (ip), vehicle: Klucel (hydroxypropylcellulose) (HPC) 86 % of control

COc1c(O)ccc2c1c[n+](C)c1c3cc4c(cc3ccc21)OCO4
inactive: dose: 4.0 mg/kg/injection, schedule: Q01DX009 (ip), vehicle: saline 113 % of control | dose: 8.0 mg/kg/injection, schedule: Q01DX009 (ip), vehicle: saline 113 % of control | dose: 16.0 mg/kg/injection, schedule: Q01DX009 (ip), vehicle: saline 106 % of control

c1ccc([As+](c2ccccc2)(c2ccccc2)c2ccccc2)cc1
active: dose: 0.55 mg/kg/injection, schedule: Q04DX003 (ip), vehicle: saline 165 % of control | dose: 2.4 mg/kg/injection, schedule: Q01DX009 (ip), vehicle: saline 184 % of control | dose: 2.5 mg/kg/injection, schedule: Q01DX009 (ip), vehicle: saline 155 % of control | [1] 160 % of control and 161 % of control and 184 % of control | [2] 150 % of control and 160 % of control | dose: 5.63 mg/kg/injection, schedule: Q01DX009 (ip), vehicle: saline 165 % of control | [3] 150 % of control
inactive: dose: 0.1 mg/kg/injection, schedule: Q04DX003 (ip), vehicle: saline 110 % of control | dose: 0.15 mg/kg/injection, schedule: Q01DX009 (ip), vehicle: saline 105 % of control | dose: 0.15 mg/kg/injection, schedule: Q04DX003 (ip), vehicle: saline 105 % of control | dose: 0.23 mg/kg/injection, schedule: Q01DX009 (ip), vehicle: saline 116 % of control | dose: 0.36 mg/kg/injection, schedule: Q04DX003 (ip), vehicle: saline 110 % of control | dose: 0.54 mg/kg/injection, schedule: Q01DX009 (ip), vehicle: saline 122 % of control | dose: 5.6 mg/kg/injection, schedule: Q01DX009 (ip), vehicle: saline 121 % of control

C[As](C)(=S)[As](C)(C)=S
inactive: [7] 116 % of control | [8] 114 % of control | [9] 119 % of control

CC(C)(O)c1cccc(F)c1
inactive: dose: 50.0 mg/kg/injection, schedule: Q01DX009 (ip), vehicle: saline with Tween-80 100 % of control | [13] 104 % of control | [12] 109 % of control

CC1(C)OC(COCCOCCO)C(COCCOCCO)O1 (stereo not given)
inactive: [4] 96 % of control | dose: 200.0 mg/kg/injection, schedule: Q04DX003 (ip), vehicle: saline 103 % of control | dose: 400.0 mg/kg/injection, schedule: Q04DX003 (ip), vehicle: saline 96 % of control

CN1C(=O)Nc2ccc(Cl)cc2C1(O)c1ccccc1 (stereo not given)
inactive: [13] 89 % of control

COC(=O)C1C2CCC3C2C(C)(C)CCCC31C (stereo not given)
inactive: [10] 100 % of control | [11] 95 % of control | [5] 104 % of control | [6] 118 % of control

— PubChem BioAssay AID328 (DTP/NCI, 2004)
